According to the NIST ThermoML archive (doi:10.1021/je900902z):
± gives the expanded uncertainty stated by the source.

Details: DTA; for Triple point temperature: Crystal 2; for Normal melting temperature: Crystal

| Structure (SMILES) | Triple point temperature | Normal melting temperature |
| --- | --- | --- |
| O=S(=O)([N-]S(=O)(=O)C(F)(F)C(F)(F)F)C(F)(F)C(F)(F)F.[Cs+] [cesium bis((perfluoroethyl)sulfonyl)amide] | 369 ± 2 K | 253 ± 2 °C |
| O=S(=O)([N-]S(=O)(=O)C(F)(F)C(F)(F)F)C(F)(F)C(F)(F)F.[Li+] [lithium bis(pentafluoroethylsulfonyl)amide] | 485 ± 2 K | 328 ± 2 °C |
| O=S(=O)([N-]S(=O)(=O)C(F)(F)C(F)(F)F)C(F)(F)C(F)(F)F.[K+] [potassium bis(pentafluoroethylsulfonyl) amide] | 427 ± 2 K | 273 ± 2 °C |
| O=S(=O)([N-]S(=O)(=O)C(F)(F)C(F)(F)F)C(F)(F)C(F)(F)F.[Rb+] [rubidium bis((perfluoroethyl)sulfonyl)amide] | 419 ± 2 K | 266 ± 2 °C |
| O=S(=O)([N-]S(=O)(=O)C(F)(F)C(F)(F)F)C(F)(F)C(F)(F)F.[Na+] [sodium bis(pentafluoroethylsulfonyl)amide] | 454 ± 2 K | 266 ± 2 °C |
